{
  "source": "patent US4584293A",
  "about": "“Aminotetralin derivatives” (Dr. Karl Thomae GmbH, priority 1984, dated 1986)",
  "assay_type_in_all_cases": "in vivo",
  "key": {"heart rate [1]": {"test_system": "heart rate", "test": "Effect on heart rate in rats (anesthetized, i.v.)", "conditions": "5.0 mg/kg into jugular vein, pentobarbital-anesthetized rats", "description": "The effect of the test substances on heart rate is tested in rats (two) with an average weight of from 250 to 300 g for each dose. The rats are anesthetized with pentobarbital (50 mg/kg i.p. and 20 mg/kg s.c.). The test substances are injected in aqueous solution into the jugular vein (0.1 ml/100 g). The blood pressure is measured using a canula tied into a carotid artery and heart rate was recorded from an ECG (II or III derivation) obtained with needle electrodes. The heart rate of the animals in the control period is between 350 and 400 beats per minute (b/min)."}, "heart rate [2]": {"test_system": "heart rate", "test": "Effect on heart rate in cats (anesthetised, i.v.)", "conditions": "chloralose-anesthetised cats", "description": "The effect of the test substances on heart rate is tested on cats (seven) of both sexes with an average weight of from 2.5 to 3.5 kg for each dose. The cats are anesthetised with chloralose (80 mg/kg). The test substance is injected in aqueous solution into the vena saphena. The heart rate is recorded before and after administration of the substance using a Grass tachograph from the electrocardiogram (electrode attached to the chest wall) on a Grass polygraph."}, "[3]": {"test": "Toxic side effects in mice after intravenous administration", "conditions": "administered intravenously, 20 mg/kg in mice", "excerpt": "The compounds prepared according to the invention have no toxic side effects in therapeutic doses. […] In view of their pharmacological properties the compounds according to the invention are suitable for the treatment of sinus tachycardia of various origins and for the prophylaxis and therapy of ischaemic heart diseases."}},
  "note": "Counter-ions that a name gives are not always drawn.",
  "data": [
    {"compound": "COc1ccc2c(c1)CCC(N(C)CCCN1CCc3cc(OC)c(OC)cc3CC1=O)C2.Cl", "note": "(stereo not drawn) [Substance D, 1-[7,8-Dimethoxy-1,3,4,5-tetrahydro-2H-3-benzazepin-2-on-3-yl]-3-[N-methyl-N-(6-methoxy-1,2,3,4-tetrahydronaphth-2-yl)-amino]-propane hydrochloride]", "values": [
      {"measurement": "Lowering of heart rate measured 20 minutes after administration of substance", "setting": "heart rate [1]", "value": -165, "unit": "b/min"}
    ]},
    {"compound": "COc1cc2c(cc1OC)CC(=O)N(CCCNC1CCc3cc(OC)c(OC)cc3C1)CC2.Cl", "note": "(stereo not drawn) [Substance B, 1-[7,8-Dimethoxy-1,3,4,5-tetrahydro-2H-3-benzazepin-2-on-3-yl]-3-[N-(6,7-dimethoxy-1,2,3,4-tetrahydronaphth-2-yl)-amino]-propane hydrochloride]", "values": [
      {"measurement": "Half life", "setting": "heart rate [2]; 1.0 mg/kg i.v.", "value": "> 2", "unit": "h"},
      {"measurement": "Lowering of heart rate", "setting": "heart rate [2]; 1.0 mg/kg i.v.", "value": -55, "unit": "%"},
      {"measurement": "Lowering of heart rate measured 20 minutes after administration of substance", "setting": "heart rate [1]", "value": -203, "unit": "b/min"},
      {"measurement": "toxic side effects", "setting": "[3]", "value": "no toxic side effects apart from slight sedation"}
    ]},
    {"compound": "COc1cc2c(cc1OC)CC(=O)N(CCCN(C)C1CCc3cc(OC)c(OC)cc3C1)CC2.Cl", "note": "(stereo not drawn) [Substance A, 1-[7,8-Dimethoxy-1,3,4,5-tetrahydro-2H-3-benzazepin-2-on-3-yl]-3-[N-methyl-N-(6,7-dimethoxy-1,2,3,4-tetrahydronaphth-2-yl)-amino]-propane hydrochloride]", "values": [
      {"measurement": "Half life", "setting": "heart rate [2]; 0.3 mg/kg i.v.", "value": "> 2", "unit": "h"},
      {"measurement": "Lowering of heart rate", "setting": "heart rate [2]; 0.3 mg/kg i.v.", "value": -30, "unit": "%"},
      {"measurement": "Half life", "setting": "heart rate [2]; 1.0 mg/kg i.v.", "value": "> 2", "unit": "h"},
      {"measurement": "Lowering of heart rate", "setting": "heart rate [2]; 1.0 mg/kg i.v.", "value": -58, "unit": "%"},
      {"measurement": "Lowering of heart rate measured 20 minutes after administration of substance", "setting": "heart rate [1]", "value": -176, "unit": "b/min"},
      {"measurement": "toxic side effects", "setting": "[3]", "value": "no toxic side effects apart from slight sedation"}
    ]},
    {"compound": "COc1ccc2c(c1)CC(N(C)CCCN1CCc3cc(OC)c(OC)cc3CC1=O)CC2", "note": "(stereo not drawn) [Substance C, 1-7,8-Dimethoxy-1,3,4,5-tetrahydro-2H-3-benzazepin-2-on-3-yl]-3-[N-methyl-N-(7-methoxy-1,2,3,4-tetrahydronaphth-2-yl)-amino]-propane hydrochloride]", "values": [
      {"measurement": "Lowering of heart rate measured 20 minutes after administration of substance", "setting": "heart rate [1]", "value": -184, "unit": "b/min"}
    ]}
  ]
}
